Read-outs that look alike come from different tables or passages of the source.
How the values were obtained:
[1] = system: human neutrophils; experiment: Assay (d): Production of Platelet-Activating Factor (PAF), A23187-challenged neutrophils; format: cell-based; conditions: A23187 2 μM
Description: Assay (d): Assay for Production of Platelet-Activating Factor (PAF)
Blood is obtained from normal humans and neutrophils were isolated as described for the arachidonic acid release assay, above. The final leukocyte preparation should be of greater than 95% purity and viability.
Neutrophils were suspended in PBS at concentrations of 5 to 20×10^6 cells per ml. Cells were added to test tubes and treated with the desired compounds for 5 to 10 minutes, then challenged with calcium ionophore A23187, 2 μM and 20-30 μCi of [3H]acetic acid (NEN-Dupont, Boston, Mass.), or the vehicle of PBS with 0.25-1 mg/ml. After 5 to 20 minutes, the reactions were terminated by addition of an equal volume of chloroform:methanol (1:2, v/v) to the samples and the lipids were extracted by addition of equal volumes of chloroform and distilled water. The samples were vortexed and centrifuged at high speed and the chloroform layer removed to a clean tube.
The chloroform from each tube was evaporated to dryness and the material suspended in a small volume of chloroform or chloroform:methanol (25-100 μl) and the total material spotted on a Silica TLC plate. The plates were developed in chloroform/methanol/acetic acid/water (50:25:8:4, v/v) visualized by radioscanning (Bioscan) and the product, [^3 H]PAF, was scraped and quantified by liquid scintillation spectroscopy. […]

[2] = system: CoA-IT; experiment: Assay (b): CoA-IT activity in U937 cell microsomes; format: biochemical, human; conditions: generally at 50 μM or less
From the text: Assay (b): CoA-IT Activity
The following is a method to measure CoA-IT activity and the effects of compounds on CoA-IT activity. The assay is based upon mixing cellular material containing CoA-IT activity with a stable lyso phospholipid such as […] and measuring the production of phospholipid product such as […] occurring in the absence of added CoA or CoA-fatty acids.
Any inflammatory cell that contains high levels of CoA-IT activity can be used, such as neutrophils, macrophages or cell lines such as U937 cells. […] Cells were grown without differentiation (basal state) by any agent, such as dimethyl sulfoxide. As used herein, "inflammatory cells" include, but are not limited to neutrophils, macrophages, monocytes, lymphocytes, eosinophils, basophils, and mast cells.
Microsomes were prepared using standard techniques. In this case, cells were washed with a buffer of 250 mM sucrose, 10 mM Tris, 1 mM EGTA, 1 mM MgCl2, pH 7.4 and ruptured by N2 cavitation (750 psi, 10 minutes). The ruptured cells were centrifuged 1000× g, 5 minutes. The resulting supernatant was centrifuged at 20,000×g,~20 minutes. Microsomes were prepared from this supernatant by centrifugation at 100,000× g, 60 minutes. The resulting pellet was washed once with assay buffer (150 mM NaCl, 10 mM Na2 KPO4, 1 mM EGTA, pH 7.4), recentrifuged and the pellet resuspended in assay buffer (4-20 mg protein/ml) and was stored at -80° C. until assayed.
CoA-IT activity was measured in 1.5 ml centrifuge tubes in a total volume of 100 ul. Microsomes were diluted in assay buffer to the desired protein concentration (6-20 ug/tube). The reaction was initiated by addition of [3H] 1-alkyl-2-lyso-sn-glycero-3-phosphocholine (GPC)(~0.1 uCi/tube) and 1 μM final cold 1-alkyl-2-lyso-GPC in assay buffer with 0.25 mg/ml fatty acid-poor bovine serumalbumin (BSA) (Calbiochem, La Jolla, Calif.). [3H]1-alkyl-2-lyso-GPC, approximately 50 Ci/mmol, was from NEN-Dupont (Boston, Mass.) and cold 1-alkyl-2-lyso-GPC was from Biomol (Plymouth Meeting, Penn.). Microsomes were pretreated with desired agents for the desired time (10 minutes) before the addition of [3H]1-alkyl-2-lyso-GPC. The reaction was run for the desired time (10 minutes) at 37° C. The reaction was stopped and the lipids extracted by addition of 100 ul of chloroform:methanol (1:2, v/v) followed by 100 ul of chloroform and 100 ul of 1M KCI. The samples were vortexed and centrifuged at high speed in a microfuge for 2-3 minutes. An aliquot of the chloroform-extracted materials were separated, usually by TLC in chloroform/methanol/acetic acid/water (50:25:8:4, v/v), visualized by radioscanning (Bioscan) and the product, [3H] 1-alkyl-2-acyl-GPC, was scraped and quantified by liquid scintillation spectroscopy. […] Other methods can be used to separate substrate from product, including but not limited to column chromatography, affinity chromatography and post reaction derivitization.

[3] = system: human monocytes; experiment: Assay (f): stimulated eicosanoid (PGE2, LTC4) release by human monocytes; format: cell-based; conditions: Monocyte, 0.25 h, A23187 1 μM, 15 min
Description: Assay (f): Measurement of stimulated eicosanoid release by human monocytes.
Leukocyte-rich leukopaks obtained from Biological Specialties (Lansdale, Pa.) were collected from male volunteers who were not taking anti-inflammatory drugs. Leukopaks were centrifuged (90× g for 15 min) twice to remove the platelet-rich plasma. The cell pellet was washed by centrifugation and resuspended in HBSS without Ca^2+ or Mg^2+. Histopaque 1077 was layered under the cell suspension and centrifuged at 400× g for 30 min to obtain the buffy coat. The interfacial buffy coat, containing monocytes and lymphocytes, was removed and saved. The buffy coat was washed twice with HBSS without Ca^2+ or Mg^2+ by centrifugation. The cell pellet (4-6×10^8 cells/30 mls) was resuspended in iso-osmotic media (RPMI-1640, 10% heat inactivated fetal bovine serum (FBS), 0.2 mM L-glutamine, 2.5 mM HEPES) and layered over an equal volume of 46% Percol mixture (10X PBS/Percol; 9.25/0.75) and 54% iso-osmotic media and centrifuged for 30 min at 1000× g (Marshall and Roshak, Biochem. Cell Biol. 71: 331-339, 1993). The monocyte population located at the interface of the Percoll gradient was removed and washed twice in HBSS without Ca^2+ or Mg^2+.
Monocytes (5×10^6 /ml) were incubated as a suspension in serum-free RPMI- 1640 medium containing the vehicle DMSO (<1%) or drug for 30 min at […] after which vehicle or stimuli was added for the indicated time. The stimulating agent is solubilized in DMSO and appropriate vehicle controls were included in all experiments. The amount of stimuli was chosen from the linear portion of a concentration versus product curve usually representing 60-80% maximal stimulation over the indicated incubation time at 37° C. (A23187, 1 μM,(15 min). The reaction was terminated by reduction of pH through addition of citric acid and centrifugation (10 min, 400× g, 4° C.). Cell viability was monitored before and after experiments using trypan blue exclusion. The cell-free media was decanted and stored at -70° C. until analyzed. Prostaglandin E2 and LTC4 were directly measured in cell-free media using enzyme immunoassay (EIA) kits purchased from Caymen Chemical Co. (Ann Arbor, Mich.). Sample or standard dilutions were made with appropriate media and analyzed in triplicate. Results were obtained by extrapolation from a standard curve prepared in the media and expressed as pg or ng/ml of sample.

[4] = read-out: IC50 for LTC4 release

SMILES	inhibition of PAF production [1]	inhibition of CoA-IT activity in the microsomal CoA-IT assay [2]	IC50 [3, 4]	IC50 ([3]; read-out: IC50 of PGE2 release)
O=C(Nc1cc(C(F)(F)F)cc(C(F)(F)F)c1)Nc1ccccc1Oc1ccccc1C(=O)O [Example 2, 2-[2-[3-[3,5-Bis (trifluoromethyl)phenyl]ureido]phenoxy]benzoic acid]	positive activity	inhibit CoA-IT activity	~1000 nM	100 to 1000 nM
O=C(Nc1cc(C(F)(F)F)cc(C(F)(F)F)c1)Nc1cc(C(F)(F)F)ccc1Oc1ccccc1C(=O)O [Example 7, 2-[2-[3-[3,5-Bis(trifluoromethyl)phenyl]ureido]-4-trifluoromethylphenoxy]benzoic acid]	positive activity	inhibit CoA-IT activity	1000 to 2000 nM	> 10000 nM

Source: patent US5447957A, “Anti-inflammatory compounds” (SmithKline Beecham Corp., priority 1994, dated 1995)
